Reference: patent publication US6521814B1, “Use of ligands for treatment of diseases responsive to retinoids” (Institut National de la Santa et de la Recherche Medicale, priority 1997, dated 2003)

Tests used:
Format in all cases: cell-based, murine
RARα−/− F9 cells [1] = assay: Morphological differentiation of F9 cell aggregates into visceral endoderm (VE)-like cells (morphology, RT-PCR of markers); design: key to proportion of outer layer of cells displaying VE morphology: +++: more than 80%; ++: 50-80%; +: 10-50%; ±: not more than 10%; (−): no visible effect; settings: 10 d
Description: (§1) Similarly, after 10 d of treatment, >80% of the outer layer of RARα^−/− and RXRα^−/−/RARα^−/− cell aggregates differentiated into VE-like cells, which were indistinguishable from those of WT and RXRα^−/− cells (FIG. 23A, compare f with panels b and d; and Table 9). […] To exclude the possibility that this very poor differentiation of the RXRα^−/−/RARγ^−/− cells could be due to some clonal variation, rather than the presence of the RXRα-null mutation in the RARγ-null background, we expressed the RXRα cDNA in RXRα^−/−/RARγ^−/− cells.
(§2) F9 cells were cultured and induced to differentiate into primitive, parietal and visceral endoderm-like cells as previously described (Boylan, J., et al., Proc. Natl. Acad. Sci. USA 90:9601-9605 (1993); Clifford, J., et al., EMBO J. 15:4142-4155 (1996)).
(§3) RNA preparation, RT-PCR, and Southern blotting were performed as previously described (Bouillet, P., et al., Dev. Biol. 170:420-433 (1995); Roy, B., et al., Mol. Cell. Biol. 15:6481-6487 (1995)). The PCR primers and end-labeled oligonucleotide probes for collagen IVα1, laminin B1, α-fetoprotein (AFP), and 36B4, were described previously (Clifford, J., et al ., EMBO J. 15:4142-4155 (1996)). Transcript levels were quantified using a BAS 2000 bioimaging analyzer (Fuji Ltd., Tokyo, Japan), and were normalized to the corresponding 36B4 signals.

WT F9 cells [2] = assay: as above; design: key to proportion of outer layer of cells displaying VE morphology: +++: more than 80%; ++: 50-80%; +: 10-50%; ±: not more than 10%; (−): no visible effect; settings: WT, 10 d
Description: as §1, §2, §3

RARγ−/− F9 cells [3] = assay: as above; design: key to proportion of outer layer of cells displaying VE morphology: +++: more than 80%; ++: 50-80%; +: 10-50%; ±: not more than 10%; (−): no visible effect; settings: RARγ−/−, 10 d
Procedure: as §2, §3

RARα−/− F9 cells [4] = assay: Proliferation of F9 cells in monolayer culture (cell counting, [3H]thymidine incorporation, cell cycle FACS); settings: 6 d
Procedure: (§4) Cells were plated in triplicate 3-cm culture wells (5×10^2 cells per well), and cell counting experiments were performed as previously described (Clifford, J., et al., EMBO J. 15:4142-4155 (1996)). [^3H]Thymidine incorporation assays were performed essentially as described (Clifford, J., et al., EMBO J. 15:4142-4155 (1996)), with the following modifications. […] The cell cycle profile of WT and mutant cells was determined as previously described (Clifford, J., et al. EMBO J. 15:4142-4155 (1996)).

RARγ−/− F9 cells [5] = assay: as above; settings: 6 d
Procedure: as §4

WT F9 cells [6] = assay: as above; settings: 6 d
Procedure: as §4

RXRα−/− F9 cells [7] = assay: as above; settings: 6 d
RXRα−/−/RARα−/− F9 cells [8] = assay: as above; settings: 6 d
RXRα−/−/RARγ−/− F9 cells = assay: as above; settings: 6 d
RARγ−/− F9 cells [9] = assay: Apoptosis of F9 cells (Hoechst 33258 staining, FACS); settings: 6 d
Procedure: (§5) Apoptosis was analyzed by both Hoechst staining of nuclei and FACS® analysis, as previously described (Clifford, J., et al., EMBO J. 15:4142-4155 (1996)).

WT F9 cells [10] = assay: as above; settings: 6 d
Procedure: as §5

RARα−/− F9 cells [11] = assay: as above; design: key: (−): no visible effect; settings: 6 d
Procedure: as §5

RXRα−/− F9 cells [12] = assay: Morphological differentiation of F9 cell aggregates into visceral endoderm (VE)-like cells (morphology, RT-PCR of markers); settings: 10 d
Description: (§6) Transcript levels were quantified using a BAS 2000 bioimaging analyzer (Fuji Ltd., Tokyo, Japan), and were normalized to the corresponding 36B4 signals.

RXRα−/−/RARα−/− F9 cells [13] = assay: as above; settings: RXRα−/−/RARα−/−, 10 d
Description: as §6

RXRα−/− F9 cells [14] = assay: Apoptosis of F9 cells (Hoechst 33258 staining, FACS); settings: 100 nM, 6 d
RXRα−/−/RARα−/− F9 cells [15] = assay: as above; settings: 100 nM, 6 d

| Structure (SMILES) | proportion of outer layer of cells displaying VE morphology (RARα−/− F9 cells [1]; 100 nM) | proportion of outer layer of cells displaying VE morphology (WT F9 cells [2]; 10 nM) | proportion of outer layer of cells displaying VE morphology (WT F9 cells [2]; 100 nM) | proportion of outer layer of cells displaying VE morphology (RARγ−/− F9 cells [3]; 10 nM) | proportion of outer layer of cells displaying VE morphology (RARγ−/− F9 cells [3]; 100 nM) | number of cells in percent relative to cells grown in 0.1% ethanol (RARα−/− F9 cells [4]; 10 nM) | number of cells in percent relative to cells grown in 0.1% ethanol (RARα−/− F9 cells [4]; 100 nM) | number of cells in percent relative to cells grown in 0.1% ethanol (RARγ−/− F9 cells [5]; 10 nM) | number of cells in percent relative to cells grown in 0.1% ethanol (RARγ−/− F9 cells [5]; 100 nM) | number of cells in percent relative to cells grown in 0.1% ethanol (WT F9 cells [6]; 10 nM) | number of cells in percent relative to cells grown in 0.1% ethanol (WT F9 cells [6]; 100 nM) | number of cells in percent relative to cells grown in 0.1% ethanol (RXRα−/− F9 cells [7]; 10 nM) | number of cells in percent relative to cells grown in 0.1% ethanol (RXRα−/− F9 cells [7]; 100 nM) | number of cells in percent relative to cells grown in 0.1% ethanol (RXRα−/−/RARα−/− F9 cells [8]; 10 nM) | number of cells in percent relative to cells grown in 0.1% ethanol (RXRα−/−/RARα−/− F9 cells [8]; 100 nM) | number of cells in percent relative to cells grown in 0.1% ethanol (RXRα−/−/RARγ−/− F9 cells; 10 nM) | number of cells in percent relative to cells grown in 0.1% ethanol (RXRα−/−/RARγ−/− F9 cells; 100 nM) | proportion of apoptotic nuclei and subcellular fragments (Hoechst 33258) (RARγ−/− F9 cells [9]; 100 nM) | proportion of apoptotic nuclei and subcellular fragments (Hoechst 33258) (WT F9 cells [10]; 100 nM) | proportion of apoptotic nuclei and subcellular fragments (Hoechst 33258) (RARα−/− F9 cells [11]; 100 nM) | also measured |
| --- | --- | --- | --- | --- | --- | --- | --- | --- | --- | --- | --- | --- | --- | --- | --- | --- | --- | --- | --- | --- | --- |
| CC1(C)CCC(C)(C)c2cc(C3(c4ccc(C(=O)O)cc4)OCCO3)ccc21 [panRXR agonist] | – | – | – | – | – | – | – | – | – | – | – | – | – | – | – | – | – | – | – | – | proportion of outer layer of cells displaying VE morphology (RARα−/− F9 cells [1]; 1 μM): (−); proportion of outer layer of cells displaying VE morphology (WT F9 cells [2]; 1 μM): (−); proportion of outer layer of cells displaying VE morphology (RARγ−/− F9 cells [3]; 1 μM): (−); number of cells in percent relative to cells grown in 0.1% ethanol (RARα−/− F9 cells [4]; 1 μM): 100%; number of cells in percent relative to cells grown in 0.1% ethanol (RARγ−/− F9 cells [5]; 1 μM): 100%; number of cells in percent relative to cells grown in 0.1% ethanol (WT F9 cells [6]; 1 μM): 100%; number of cells in percent relative to cells grown in 0.1% ethanol (RXRα−/− F9 cells [7]; 1 μM): 100%; number of cells in percent relative to cells grown in 0.1% ethanol (RXRα−/−/RARα−/− F9 cells [8]; 1 μM): 100%; number of cells in percent relative to cells grown in 0.1% ethanol (RXRα−/−/RARγ−/− F9 cells; 1 μM): 100%; proportion of apoptotic nuclei and subcellular fragments (Hoechst 33258) (RARγ−/− F9 cells [9]; 1 μM): (−); proportion of apoptotic nuclei and subcellular fragments (Hoechst 33258) (WT F9 cells [10]; 1 μM): (−); proportion of apoptotic nuclei and subcellular fragments (Hoechst 33258) (RARα−/− F9 cells [11]; 1 μM): (−) |
| CC1(C)C(=O)C(C)(C)c2cc(C(=O)Nc3ccc(C(=O)O)cc3)ccc21 [RARα agonist] | (−) | (−) | (−) | (−) | ± (not more than 10%) | 100% | 100% | 100% | 100% | 100% | 100% | 100% | 100% | 100% | 100% | 124% | 143% | (−) | (−) | (−) | – |
| CC1(C)CCC(C)(C)c2cc([C@@H](O)C(=O)Nc3ccc(C(=O)O)cc3F)ccc21 [RARγ agonist] | +++ (more than 80%) | ± (not more than 10%) | +++ (more than 80%) | (−) | (−) | 100% | 30% | 100% | 100% | 100% | 37% | 100% | 51% | 100% | 49% | 100% | 100% | (−) | + (>1-10%) | + (>1-10%) | proportion of outer layer of cells displaying VE morphology (RARα−/− F9 cells [1]; 1 nM): (−); proportion of outer layer of cells displaying VE morphology (RARα−/− F9 cells [1]; 10 nM): +++ (more than 80%); proportion of outer layer of cells displaying VE morphology (WT F9 cells [2]; 1 nM): (−); proportion of outer layer of cells displaying VE morphology (RXRα−/− F9 cells [12]; 10 nM): + (10-50%); proportion of outer layer of cells displaying VE morphology (RXRα−/− F9 cells [12]; 100 nM): +++ (more than 80%); proportion of outer layer of cells displaying VE morphology (RXRα−/−/RARα−/− F9 cells [13]; 10 nM): + (10-50%); proportion of outer layer of cells displaying VE morphology (RXRα−/−/RARα−/− F9 cells [13]; 100 nM): +++ (more than 80%); proportion of outer layer of cells displaying VE morphology (RARγ−/− F9 cells [3]; 1 nM): (−); proportion of apoptotic nuclei and subcellular fragments (Hoechst 33258) (WT F9 cells [10]; 10 nM): (−); proportion of apoptotic nuclei and subcellular fragments (Hoechst 33258) (RXRα−/− F9 cells [14]): ±* (asterisks less than that in combination with 1 μM panRXR agonist); proportion of apoptotic nuclei and subcellular fragments (Hoechst 33258) (RARα−/− F9 cells [11]; 10 nM): (−); proportion of apoptotic nuclei and subcellular fragments (Hoechst 33258) (RXRα−/−/RARα−/− F9 cells [15]): ±* (asterisks less than that in combination with 1 μM panRXR agonist) |
